Data set [1] has as its system herpes simplex virus (HSV) Type I strain HF. Kind of data set: HSV-1 plaque formation assay in VERO cells. In kind it is cell-based. To be noted: Human alphaherpesvirus 1, HSV-1, Strain HF. The text has this:
(§1) Virus stocks. The HIV-1 strain used in this study was HTLV-IIIB (Uckun et al., 1998 Antimicro. Agents and Chemother., 42:383-388). The non-HIV viruses included in the present study were the gancyclovir-sensitive cytomegalovirus (CMV) strain AD169 (ATCC VR-538); acyclovir-sensitive herpes simplex virus (HSV) Type I strain HF (ATCC VR-260); acyclovir-sensitive HSV Type II strain G (ATCC VR-734); adenovirus strain Type 5, strain adenoid 75 (ATCC VR-5); enterovirus strain, ECHO 30, strain Bastianni (ATCC VR-322); and respiratory syncytial virus (RSV), strain Long (ATCC VR-26).
(§2) Plaque formation assays. Plaque assays were used to examine the activity of the compounds against non-HIV viruses. The skin fibroblast cell line SF (ATCC CRL-2097) was used as a target for AD169, Adenovirus Type 5. […] cell line (ATCC CCL-81) was used as a target for HSV HF and G. The HEP-2 cell line (ATCC CCL-23) was used as a target for the RSV strain Long. These cell lines were cultured at 1×10^5 cells/well in 24-well (all but ECHO 30-infected SF) or 6-well (ECHO 30-infected SF) tissue culture plates with 0.9% methylcellulose or 0.4% SeaPlaque agarose semisolid support. […] Percent inhibition of plaque formation was calculated by comparing the plaque numbers from the test substance-treated infected cells with the plaque numbers from untreated infected cells (i.e., virus controls). The IC50 values were determined using the Statview statistics program (SAS Institute, Inc., Cary, N.C.).
(§3) Statistical analysis. […] An IC50 value was calculated from each set of triplicate wells using nonlinear regression modeling of the exponential form of the linearized equation (Statview, SAS Institute, Inc., Cary, N.C.). […]
(§4) The skin fibroblast cell line SF (ATCC CRL-2097) was used as a target for AD169, Adenovirus Type 5, and ECHO 30; the VERO cell line (ATCC CCL-81) was used as a target for HF and G; and the HEP-2 cell line (ATCC CCL-23) was used as target for the RSV strain Long. Results are expressed as the average IC50 values in μM. […]

Data set [2] deals with HIV-1 strain HTLV-IIIB. The experiment in a line: In vitro anti-HIV-1 activity, p24 antigen assay in PBMNC. To be noted: Human immunodeficiency virus 1, HIV-1, HTLV-IIIB, day 7. It is filed as cell-based.
Excerpt: as §1
In vitro assays of anti-HIV-1 activity. Normal human peripheral blood mononuclear cells (PBMNC) from HIV-negative donors were cultured 72 hours in RPMI 1640 supplemented with 20% (v/v) heat-inactivated fetal bovine serum (FBS), 3% interleukin-2, 2 mM L-glutamine, 25 mM HEPES, 2 g/L NaHCO3, 50 Tg/mL gentamicin, and 4 Tg/mL phytohemagglutinin prior to exposure to HIV-1 at a multiplicity of infection (MOI) of 0.1 during a 1 hour adsorption period at 37° C. in a humidified 5% CO2 atmosphere. Subsequently, cells were cultured in 96-well microtiter plates (100 TL, 2×10^6 cells/mL) in the presence of various concentrations of compounds 113 or 609. Aliquots of culture supernatants were removed from the wells on the seventh day after infection for p24 antigen assays, as previously described. […] Percent viral inhibition was calculated by comparing the p24 values from untreated infected cells (i.e., virus controls).
Statistical analysis. […] An IC50 value was calculated from each set of triplicate wells using nonlinear regression modeling of the exponential form of the linearized equation (Statview, SAS Institute, Inc., Cary, N.C.). Hydrolysis rates were determined by fitting single exponential decay equations to the disappearance of the compound in alkali conditions (all R^2 values greater than 0.85). […]

Data set [3] is described as follows: Pharmacokinetic studies in mice, oral administration. It is filed as in vivo, Balb/c mice.
Method: Female Balb/c mice (6-8 weeks old) from Taconic (Germantown, N.Y.) were housed in a controlled environment (12-hours of light/12-hours of dark, 22±1° C., 60±10% relative humidity), which is fully accredited by the USDA. All rodents were housed in microisolator cages (Lab Products, Inc., NJ) containing autoclaved bedding. The mice were allowed free access to autoclaved pellet food and tap water throughout the study. All animal care procedures conformed to the Guide for the Care and Use of Laboratory Animals (National Research Council, National Academy Press, Washington D.C. 1996).
Sampling time points were 0, 2, 5, 10, 15, 30, 45, 60, 120, 240 and 360 minutes after the gavage.
All collected blood samples were heparinized and centrifuged at 7000×g for 5 minutes to separate the plasma fraction from the whole blood. The plasma samples were then processed immediately using the extraction procedure described above.
Pharmacokinetic modeling and parameter calculations were carried out using the WinNonlin Professional Version 3.0 (Pharsight, Inc., Mountain, Calif.) pharmacokinetics software (Chen et al., Pharm. Res., 16, 1003 (1999); Chen et al., Pharm. Res., 16, 117 (1999); Chen et al., J. Clin. Pharmacol., 39, 1248 (1999); Uckun et al., Clin. Cancer Res., 5, 2954 (1999); and Uckun et al., J. Pharmacol. Exp. Ther., 291, 1301 (1999)). An appropriate model was chosen on the basis of the lowest sum of weighted squared residuals, the lowest Schwartz Criterion (SC), the lowest Akaike's Information Criterion (AIC) value, the lowest standard errors of the fitted parameters, and the dispersion of the residuals. The elimination half-life was estimated by linear regression analysis of the terminal phase of the plasma concentration-time profile. The area under the concentration-time curve (AUC) was calculated according to the linear trapezoidal rule between the first sampling time (0 hours) and the last sampling time plus C/k, where C is the concentration of the last sampling and k is the elimination rate constant. The systemic clearance (CL) was determined by dividing the dose by the AUC. The metabolic clearance of the parent drug, the formation clearance of the metabolite, the clearance elimination of the metabolite, and the distribution clearance of the metabolite were estimated by simultaneous fitting of the concentration of parent drug and metabolites as a function of time curve to pharmacokinetic models (see FIGS. 7A & 8A) specified as a system of differential equations (Gabrielsson & Weiner, Phamacokinetic/Phamacodynamic Data Analysis: Concepts and Applications, Swedish Pharmaceutical Press (1997)).
The nature of data set [4]: Octanol/water partition coefficient, shake flask method. It is filed as physicochemical. Particulars: 4 hours at room temperature, read-out: Oct/Water (log P). The procedure: HPLC purification was achieved using a reverse-phase Lichrospher column (250×4 mm, Hewlett-Packard, RP-18, Cat. #79925) and an isocratic flow (1 ml/minute) consisting of water (70%) and acetonitrile (30%). Melting points were determined using a Melt John's apparatus and are uncorrected. Column chromatography was performed using silica gel obtained from Baker Company. The octanol/water partition coefficient was determined by the shake flask method. The phosphoramidate analogs were added to 2 ml of water and 2 ml of octanol in a glass vial. The mixture was shaken for 4 hours at room temperature. The two phases were carefully separated and filtered through a Millipore filter and analyzed by HPLC. The partition coefficient was calculated using the ratio of the area under the curve for octanol and water, respectively.

For data set [5], the system named is cytomegalovirus (CMV) strain AD169. Kind of data set: CMV plaque formation assay in SF cells. In kind it is cell-based. To be noted: Human betaherpesvirus 5.
Excerpt: as §1, §2, §3, §4

Data set [6] relates to enterovirus strain, ECHO 30, strain Bastianni. The experiment in a line: Enterovirus plaque formation assay in SF cells. In kind it is cell-based.
Excerpt: as §1, §2, §3, §4

Structures are written as SMILES. Like-named read-outs stand apart in the source and are kept apart here.

By IC50 is commonly meant the point on the concentration scale where inhibition reaches its midpoint. `COC(=O)C(C)NP(=O)(OC[C@@H]1C=C[C@H](n2cc(C)c(=O)[nH]c2=O)O1)Oc1ccc(Br)cc1` (some centres unmarked) [Compound 113, 5′-[4-Bromophenyl methoxylaninylphosphate]-2′, 3′-didehydro-3′-deoxy thymidine]: the half-maximal inhibitory concentration (IC50) in data set [1] is more than 100 µM; in data set [2], 0.001 µM; in data set [5], more than 100 µM; in data set [6], more than 100 µM. In addition, in data set [3] (after oral 100 mg/kg compound 113, below the detection limit), the “plasma concentration of the parent” value is less than 500 nM. In addition, the logP at 4 h in data set [4] worked out at 1.21.

By half-life is commonly meant the time needed for the level to fall by half in the phase considered. Low readings indicate rapid decline, high ones slow decline. A word on the Tmax: it is the time from dosing to the highest level. As usually defined, the bioavailability is dose-corrected exposure relative to a reference, in per cent. Read a high bioavailability as much systemic uptake. `Cc1cn([C@H]2C=C[C@@H](CO)O2)c(=O)[nH]c1=O` [d4T, 2′, 3′-Didehydro-3′-deoxy thymidine, reference compound]: the IC50 in data set [1] is more than 100 µM; in data set [2] it was 0.023 ± 0.008 µM; in data set [5] it was more than 100 µM; in data set [6] (ECHO 30, SF cells, plaque assay, read-out: IC50), more than 100 µM. The half-life in data set [3] (mouse, in vivo, po, mice, orally administered d4T) was 18 min. For the same molecule, the time to peak (Tmax) in data set [3] (mouse, in vivo, po, mice, orally administered d4T, read-out: tmax (converted)) is 5 min. This molecule returned a bioavailability in data set [3] (orally administered d4T) of 98%. For the same molecule, in data set [4] (octanol/water), the logP at 4 h was -0.59.

The values are drawn from patent US20030236218A1, “Aryl phosphate derivatives of d4T with selective activity against adenovirus and HIV” (priority 2002, published 2003).
